Drawing on patent US20210369853A1, “TARGETED PROTEASE DEGRADATION PLATFORM” (EUBULUS BIOTHERAPEUTICS INC., priority 2018, published 2021), this text covers EC50 and DC50 for eight molecules.

Holding throughout (type): cell-based
Experiment [1] deals with Human Glioma Cells U-87 MG. The experiment is described as follows: Cell proliferation experiment (Alarm blue, 72 h, EC50). To be noted: Homo sapiens; U-87MG cells. The essentials:
(§1)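 Duplicate wells per concentration, 5-fold dilution series, 72 h continuous exposure of log-phase cells; read-out Alamar blue fluorescence, EC50 derived by curve fit with minimum, maximum and slope terms.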

In experiment [2] the test system is Human Acute Myelomonocytic Leukemia HL-60. Described as above. To be noted: HL-60 cells. The essentials:
as §1

In experiment [3] the test system is Human Colon Cancer HCT-116. Described as above. To be noted: HCT116 cells. The essentials: as §1
Experiment [4] concerns Human cervical adenocarcinoma cells Hela. The experiment is described as above. The essentials:
as §1

Experiment [5] has as its system Human Small Cell Lung Cancer NCI-H82. The experiment is described as above. To be noted: Homo sapiens, NCI-H82; NCIH82 cells. In outline: as §1
A further experiment concerns Human Colon Cancer HT-29. Described as above. To be noted: HT-29 cells. The essentials: as §1
Experiment [6] concerns Human Breast Cancer MDA-MB-231. The experiment is described as above. To be noted: MDA-MB-231 cells. In outline: as §1
The test system of experiment [7] is Human Monocytic Leukemia MV4-11. The description is as above. To be noted: Homo sapiens. The essentials: as §1
The subject of experiment [8] is Human Monocytic Leukemia THP-1. The experiment is described as above. To be noted: THP-1 cells. The essentials:
as §1

For a further experiment, the target named is T1, PLK1 (Homo sapiens, UniProt P53350).
T1 construct: endogenous in cells
The experiment is described as follows: Western blot, protein degradation (DC50). In outline: (§2)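 Cells treated with compound, lysed in RIPA and resolved by SDS-PAGE (4%-12%); PVDF blots probed with primary antibody overnight at 4° C, then secondary antibody, and developed with ECL. Band intensities quantified by densitometry to give degradation.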

A further experiment concerns the target T2, BRD4 (Homo sapiens, UniProt O60885).
T2 construct: endogenous in cells
The experiment is described as follows: Western blot, protein degradation (DC50). To be noted: western blot. The essentials: as §2
(Immunoblotting shows a protein as a band on a membrane.)

The test system of experiment [9] is Human Acute Lymphoblastic Leukemia Cells MOLT-4. The experiment is described as follows: Cell proliferation experiment (Alarm blue, 72 h, EC50). To be noted: MOL4-4 cells. In outline: as §1
Setting [10] is: 6 h, western blot, read-out: PLK1 DC50 (6 h).

Read-outs that look alike come from different tables or passages of the source. Some results are limits rather than exact numbers.

T1 sequence (P53350 whole entry): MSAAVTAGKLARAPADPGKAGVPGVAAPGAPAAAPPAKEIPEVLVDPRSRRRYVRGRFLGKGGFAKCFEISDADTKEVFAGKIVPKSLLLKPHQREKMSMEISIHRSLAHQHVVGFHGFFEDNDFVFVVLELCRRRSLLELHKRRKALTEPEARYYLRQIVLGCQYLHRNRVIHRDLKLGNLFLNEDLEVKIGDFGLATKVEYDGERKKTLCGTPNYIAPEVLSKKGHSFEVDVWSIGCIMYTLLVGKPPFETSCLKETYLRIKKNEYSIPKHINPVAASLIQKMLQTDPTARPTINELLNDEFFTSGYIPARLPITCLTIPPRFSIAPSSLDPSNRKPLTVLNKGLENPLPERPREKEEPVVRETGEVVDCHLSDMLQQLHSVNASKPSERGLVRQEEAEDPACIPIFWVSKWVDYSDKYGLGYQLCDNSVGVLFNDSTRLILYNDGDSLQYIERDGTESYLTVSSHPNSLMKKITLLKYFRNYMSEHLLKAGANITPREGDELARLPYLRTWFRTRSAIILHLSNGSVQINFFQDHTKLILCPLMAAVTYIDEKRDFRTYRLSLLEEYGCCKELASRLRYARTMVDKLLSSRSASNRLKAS

On to `CC[C@@H]1C(=O)N(C)c2cnc(Nc3ccc(C(=O)NCCOCCOCCOCCNCCC(=O)Nc4cccc5c4CN(C4CCC(=O)NC4=O)C5=O)cc3OC)nc2N1Cc1ccc(Br)cc1` (stereo partly shown) [UB-180634], for which the EC50 in experiment [1] was 100 to 1000 nM; in experiment [2] it was 100 to 1000 nM; in [3] (Homo sapiens, HCT-116), over 1000 nM; in experiment [4] (Homo sapiens), 100 to 1000 nM; in experiment [5] it was over 1000 nM; with Human Colon Cancer HT-29 (Homo sapiens), 100 to 1000 nM. Further, the EC50 in experiment [6] (Homo sapiens) was 100 to 1000 nM; in experiment [7] (MV4-11, MV4;11 cells), under 10 nM; in experiment [8], 100 to 1000 nM.
`CC[C@@H]1C(=O)N(C)c2cnc(Nc3ccc(C(=O)NCCCNCCCCC(=O)Nc4cccc5c4CN(C4CCC(=O)NC4=O)C5=O)cc3OC)nc2N1C1CCCC1` (stereo partly shown) [UB-180658]: the DC50 at PLK1 (setting [10]) is 10 to 100 nM; on BRD4 (6 h, read-out: BRD4 DC50 (6 h)), 10 to 100 nM. The EC50 is 100 to 1000 nM in [1]; 100 to 1000 nM in experiment [2]; 100 to 1000 nM in experiment [3] (Homo sapiens, HCT-116); 100 to 1000 nM in [4] (Homo sapiens); over 1000 nM in experiment [5]; 100 to 1000 nM in the experiment with Human Colon Cancer HT-29 (Homo sapiens). Moreover, the EC50 in [6] (Homo sapiens) lay in the range of 100 to 1000 nM; in experiment [7] (MV4-11, MV4;11 cells) it was 10 to 100 nM; in [8] it was 100 to 1000 nM.
Consider `CC[C@@H]1C(=O)N(C)c2cnc(Nc3ccc(C(=O)NCCOCCOCCOCCNCCCCC(=O)Nc4cccc5c4CN(C4CCC(=O)NC4=O)C5=O)cc3OC)nc2N1Cc1ccc(Br)cc1` (stereo partly shown) [UB-180667], for which the DC50 at PLK1 (24 h, western blot, read-out: PLK1 DC50 (24 h)) is under 10 nM; on BRD4 (24 h, read-out: BRD4 DC50 (24 h)), under 10 nM. In addition, the EC50 in [1] was 100 to 1000 nM; in experiment [2] it was 100 to 1000 nM; in experiment [5] it was 100 to 1000 nM; with Human Colon Cancer HT-29 (Homo sapiens), 100 to 1000 nM; in experiment [6] (Homo sapiens), 100 to 1000 nM; in experiment [7] (MV4;11 cells), 10 to 100 nM. In [9], this molecule showed an EC50 of 100 to 1000 nM.
With `CC[C@@H]1C(=O)N(C)c2cnc(Nc3ccc(C(=O)NCc4cn(CCNCCCC(=O)Nc5cccc6c5CN(C5CCC(=O)NC5=O)C6=O)nn4)cc3OC)nc2N1C1CCCC1` (stereo partly shown) [UB-180681], the DC50 on PLK1 (setting [10]) is 100 to 1000 nM; on BRD4 (6 h, read-out: BRD4 DC50 (6 h)), under 10 nM. Further, the EC50 in [1] is 100 to 1000 nM; in experiment [2], 100 to 1000 nM; in [5] it was 100 to 1000 nM; in the experiment with Human Colon Cancer HT-29 (Homo sapiens), 100 to 1000 nM; in experiment [6] (Homo sapiens) it was 100 to 1000 nM; in experiment [7] (MV4;11 cells), under 10 nM. In addition, the EC50 in experiment [9] fell in the range of 100 to 1000 nM.
Turning to `O=C1CCC(N2Cc3c(NC(=O)CNCCOCCOCCOCCOCCNC(=O)c4ccc(Nc5ncc6c(n5)-c5ccc(Cl)cc5C(c5c(F)cccc5F)=NC6)cc4)cccc3C2=O)C(=O)N1` (stereo not shown) [UB-180801], the EC50 in experiment [2] is over 1000 nM; in experiment [7] (MV4-11, MV4;11 cells), 100 to 1000 nM.
Consider `O=C1CCC(N2Cc3c(NC(=O)CNCCOCCOCCOCCOCCNC(=O)[C@]4(Cc5cccc(Nc6nccs6)n5)CC[C@@H](Oc5cccc(Cl)c5F)CC4)cccc3C2=O)C(=O)N1` (stereo partly shown) [UB-180802], for which, on PLK1 (6 h, read-out: PLK1 DC50 (6 h)), the DC50 was under 10 nM. Besides, the EC50 in experiment [2] was over 1000 nM; in [3] (Homo sapiens, HCT-116), 100 to 1000 nM; in [7] (MV4-11, MV4;11 cells) it was 100 to 1000 nM.
As to `CC[C@@H]1C(=O)N(C)c2cnc(Nc3ccc(C(=O)NC4CCN(CCOCCN(CC(=O)Nc5cccc6c5CN(C5CCC(=O)NC5=O)C6=O)C(=O)OC(C)C(C)SSC[C@@H](NC(=O)[C@@H](CC(=O)O)NC(=O)[C@@H](CC(=O)O)NC(=O)[C@@H](CCCNC(=N)N)NC(=O)[C@@H](CC(=O)O)NC(=O)CC[C@H](NC(=O)c5ccc(NCc6cnc7nc(N)[nH]c(=O)c7n6)cc5)C(=O)O)C(=O)O)CC4)cc3OC)nc2N1C1CCCC1` (stereo partly shown) [UB-180838], the 50% effective concentration (EC50) (in [3]; in experiment [4]; in the experiment on Human Colon Cancer HT-29; in experiment [6]) was 100 to 1000 nM in each case.
As for `CC(OC(=O)N(CCOCCOCCOCCNC(=O)[C@]1(Cc2cccc(Nc3nccs3)n2)CC[C@@H](Oc2cccc(Cl)c2F)CC1)CC(=O)Nc1cccc2c1CN(C1CCC(=O)NC1=O)C2=O)C(C)SSC[C@H](NC(=O)[C@@H](CC(=O)O)NC(=O)[C@@H](CC(=O)O)NC(=O)[C@@H](CCCNC(=N)N)NC(=O)[C@@H](CC(=O)O)NC(=O)CC[C@H](NC(=O)c1ccc(NCc2cnc3nc(N)[nH]c(=O)c3n2)cc1)C(=O)O)C(=O)O` (stereo partly shown) [UB-180839], the EC50 (in experiment [3]; in experiment [4]; in the experiment with Human Colon Cancer HT-29; in [6]) was 100 to 1000 nM throughout.

In general, EC50 refers to the concentration that produces a half-maximal response. The term DC50 denotes the concentration at which degradation of the target reaches its halfway point.
